In PMC2817922, “Inhibitory Activity of Marine Sponge-Derived Natural Products against Parasitic Protozoa” (Marine Drugs, 2010):
Converted amounts (≈) assume the structure as drawn. Read-outs that look alike come from different tables or passages of the source.

Key:
[1] = Cytotoxicity against L6 cells (Alamar Blue); type: cell-based, rat
Protocol: Assays were performed in 96-well microtiter plates, each well containing 100 μL of RPMI 1640 medium supplemented with 1% L-glutamine (200 mM) and 10% fetal bovine serum, and 4 × 10^4 L6 cells (a […] cell line derived from rat skeletal myoblasts). Serial drug dilutions of seven 3-fold dilution steps covering a range from 90 to 0.123 μg/mL were prepared. After 72 h of incubation, the plates were inspected under an inverted microscope to assure growth of the controls and sterile conditions. Ten μL of Alamar Blue solution was then added to each well and the plates incubated for another 2 h. Then the plates were read with a Spectramax Gemini XS microplate fluorometer using an excitation wavelength of 536 nm and an emission wavelength of 588 nm. Data were analysed using the microplate reader software Softmax Pro. Podophyllotoxin was the reference drug used.

[2] = test system: L. donovani strain MHOM/ET/67/L82; test: Activity against Leishmania donovani axenic amastigotes (Alamar Blue); type: cell-based; settings: for IC50: Leishmania donovani, axenic amastigotes, MHOM/ET/67/L82, 72 h
Protocol: Amastigotes of L. donovani strain MHOM/ET/67/L82 were grown in axenic culture at 37 °C in SM medium at pH 5.4 supplemented with 10% heat-inactivated fetal bovine serum under an atmosphere of 5% CO2 in air. One hundred microlitres of culture medium with 10^5 amastigotes from axenic culture with or without a serial drug dilution were seeded in 96-well microtitre plates. Serial drug dilutions covering a range from 90 to 0.123 μg/mL were prepared. After 72 h of incubation the plates were inspected under an inverted microscope to assure growth of the controls and sterile conditions. 10 μL of Alamar Blue (12.5 mg resazurin dissolved in 100 mL distilled water) were then added to each well and the plates incubated for another 2 h. Then, the plates were read with a Spectramax Gemini XS microplate fluorometer using an excitation wavelength of 536 nm and an emission wavelength of 588 nm. Data were analyzed using the software Softmax Pro (Molecular Devices Cooperation, Sunnyvale, CA, USA). Decrease of fluorescence (=inhibition) was expressed as percentage of the fluorescence of control cultures and plotted against the drug concentrations. From the sigmoidal inhibition curves the IC50 values were calculated. Miltefosine was used as reference drug.

P. falciparum K1 strain = test: Activity against Plasmodium falciparum ([3H]-hypoxanthine incorporation); type: cell-based; settings: for IC50: Plasmodium falciparum
Protocol: In vitro activity against erythrocytic stages of P. falciparum was determined by a modified [^3H]-hypoxanthine incorporation assay, using the chloroquine- and pyrimethamine-resistant K1 strain and the standard drug […]. Briefly, parasite cultures incubated in RPMI 1640 medium with 5% Albumax (without hypoxanthine) were exposed to serial drug dilutions in microtiter plates. After 48 h of incubation at 37°C in a reduced oxygen atmosphere, 0.5 μCi ^3H-hypoxanthine was added to each well. Cultures were incubated for a further 24 h before they were harvested onto glass-fiber filters and washed with distilled water. The radioactivity was counted using a Betaplate™ liquid scintillation counter (Wallac, Zurich). […] IC50 values were calculated from the sigmoidal inhibition curves using Microsoft Excel. Chloroquine was the reference drug used.

[3] = test system: T. cruzi Tulahuen strain C2C4; test: Activity against Trypanosoma cruzi (intracellular amastigotes in L6 cells, beta-galactosidase/CPRG); type: cell-based; settings: for IC50: Trypanosoma cruzi, TULAHUEN, Myoblast, in Rattus norvegicus, 96 h, intracellular amastigotes in L6 rat skeletal myoblasts, Tulahuen C2C4, 96 h
Protocol: Rat skeletal myoblasts (L6 cells) were seeded in 96-well microtitre plates at 2000 cells/well in 100 μL RPMI 1640 medium with 10% FBS and 2 mM L-glutamine. After 24 h the medium was removed and replaced by 100 μL per well containing 5000 trypomastigote forms of T. cruzi Tulahuen strain C2C4 containing the β-galactosidase (Lac Z) gene. After 48 h, the medium was removed from the wells and replaced by 100 μL fresh medium with or without a serial drug dilution of seven 3-fold dilution steps covering a range from 90 to 0.123 μg/mL. After 96 h of incubation, the plates were inspected under an inverted microscope to assure growth of the controls and sterility. Then, the substrate CPRG/Nonidet (50 μL) was added to all wells. A color reaction developed within 2–6 h and could be read photometrically at 540 nm. Data were transferred into the graphic programme Softmax Pro (Molecular Devices), which calculated IC50 values. Benznidazole was the reference drug used.

[4] = test system: Trypanosoma brucei rhodesiense, STIB 900 strain; test: Activity against Trypanosoma brucei rhodesiense (Alamar Blue); type: cell-based; settings: read-out: IC50 Trypanosoma b. rhodesiense
Protocol: Trypanosoma brucei rhodesiense, STIB 900 strain, and the standard drug, melarsoprol, were used for the assay. This stock was isolated in 1982 from a human patient in Tanzania and after several mouse passages cloned and adapted to axenic culture conditions. Minimum Essential Medium (50 μL) supplemented with 25 mM HEPES, 1g/L additional glucose, 1% MEM non-essential amino acids (100x), 0.2 mM 2-mercaptoethanol, 1 mM Na-pyruvate and 15% heat inactivated horse serum was added to each well of a 96-well microtiter plate. Serial drug dilutions of seven 3-fold dilution steps covering a range from 90 to 0.123 μg/mL were prepared. Then 10^4 bloodstream forms of T. b. rhodesiense STIB 900 in 50 μL was added to each well and the plate incubated at 37 °C under a 5% CO2 atmosphere for 72 h. 10 μL Alamar Blue (resazurin, 12.5 mg in 100 mL double-distilled water) was then added to each well and incubation continued for a further 2–4 h. Then, the plates were read with a Spectramax Gemini XS microplate fluorometer (Molecular Devices Cooperation, Sunnyvale, CA, USA) using an excitation wavelength of 536 nm and an emission wavelength of 588 nm. Data were analyzed using the microplate reader software Softmax Pro (Molecular Devices Cooperation, Sunnyvale, CA, USA).

[5] = K1, erythrocytic stages, K1 strain resistant to chloroquine and pyrimethamine, read-out: IC50 Plasmodium falciparum
[6] = bloodstream forms, STIB 900, 72 h, average of at least two independent assays in duplicates

Row | Structure (SMILES) | IC50 at 72 h ([1]; rat) | IC50 [2] | IC50 (P. falciparum K1 strain; [5]) | IC50 [3] | IC50 [4, 6] | IC50 at 72 h ([1]; L6 cells (rat skeletal myoblasts), 72 h, read-out: IC50 Cytotoxicity) | selectivity index (IC50 against L6 cells/IC50 against parasite) (P. falciparum K1 strain; towards the malaria parasite (P. falciparum)) | fold less active against T. cruzi than against T. b. rhodesiense ([3]; ratio of IC50 values) | selectivity index (IC50 against L6 cells/IC50 against parasite) ([2]; for L. donovani) | IC50 (P. falciparum K1 strain; K1, read-out: IC50 Plasmodium falciparum) | IC50 ([4]; 72 h)
1 | CC(C)=CCC/C(C)=C/CC/C(C)=C/CC/C(C)=C/Cc1cc(CC(=O)O)ccc1O [Compound 8, 4-hydroxy-3-tetraprenylphenylacetic acid] | > 90 µg/mL | > 90 µg/mL | 3.3 µg/mL (≈ 7.77 µM) | > 90 µg/mL | 0.6 µg/mL (≈ 1.41 µM) | – | – | – | – | – | –
2 | CC(C)=CCC/C(C)=C/CC/C(C)=C/CC/C(C)=C/CC/C(C)=C/CCc1ccoc1 [Compound 2, furospinulosin-2] | 34 µg/mL (≈ 80.4 µM) | > 90 µg/mL | 3.51 µg/mL (≈ 8.3 µM) | > 90 µg/mL | 16.2 µg/mL (≈ 38.2 µM) | – | – | – | – | – | –
3 | COc1cc([C@@H]2c3cc4c(cc3[C@H](O)[C@H]3COC(=O)[C@H]23)OCO4)cc(OC)c1OC [podophyllotoxin, reference compound] | – | – | – | – | – | 0.004 µg/mL (≈ 0.00965 µM) | – | – | – | – | –
4 | CCCCCCCCCCCCCCCCOP(=O)([O-])OCC[N+](C)(C)C [miltefosine, reference compound] | – | 0.2 µg/mL (≈ 0.491 µM) | – | – | – | – | – | – | – | – | –
5 | CC(=O)O[C@H]1CC2[C@@]3(C)CCCC(C)(C)C3CC[C@@]2(C)C2CC=C3CO[C@@H](O)C3[C@]21C (stereo partly drawn) [Compound 13, 12-epi-deoxoscalarin] | 60.3 µg/mL (≈ 140 µM) | > 90 µg/mL | 7.48 µg/mL (≈ 17.4 µM) | 40.4 µg/mL (≈ 93.9 µM) | 55.2 µg/mL (≈ 128 µM) | – | – | – | – | – | –
6 | COC(=O)/C(C)=C/CC/C(=C/CC/C(C)=C/CC/C(C)=C/CCc1ccoc1)C(=O)O [Compound 4, furospongin-4] | > 90 µg/mL | > 90 µg/mL | 7.51 µg/mL (≈ 17.5 µM) | > 90 µg/mL | 17.9 µg/mL (≈ 41.9 µM) | – | – | – | – | – | –
7 | CC(=O)O[C@H]1C=C2C(=O)OCC2[C@@]2(C)C1[C@@]1(C)CCCC(C)(C)C1C[C@@H]2OC(C)=O (some centres unmarked) [Compound 11, dorisenone D] | 3.93 µg/mL (≈ 9.39 µM) | > 90 µg/mL | 0.43 µg/mL (≈ 1.03 µM) | > 90 µg/mL | 2.47 µg/mL (≈ 5.9 µM) | – | > 9 | – | – | – | –
8 | OCCc1c[nH]c2ccccc12 [Compound 14, tryptophol] | 63.5 µg/mL (≈ 394 µM) | 9.6 µg/mL (≈ 59.6 µM) | 5.08 µg/mL (≈ 31.5 µM) | 49.4 µg/mL (≈ 306 µM) | 5.89 µg/mL (≈ 36.5 µM) | – | – | 8 fold | – | – | –
9 | O=C(Cn1ccnc1[N+](=O)[O-])NCc1ccccc1 [benznidazole, reference compound] | – | – | – | 0.359 µg/mL (≈ 1.38 µM) | – | – | – | – | – | – | –
10 | CC(C)=CCC/C(C)=C/CC/C(C)=C/CC/C(C)=C/CCc1ccoc1 [Compound 1, furospinulosin-1] | > 90 µg/mL | 14.2 µg/mL (≈ 40 µM) | 11.2 µg/mL (≈ 31.5 µM) | > 90 µg/mL | 27.4 µg/mL (≈ 77.4 µM) | – | – | – | – | – | –
11 | C/C(=C\CCc1ccoc1)C[C@@H](O)C[C@@H](C)CCCc1ccoc1 [Compound 3, furospongin-1] | 27.4 µg/mL (≈ 83.1 µM) | 4.8 µg/mL (≈ 14.5 µM) | 14 µg/mL (≈ 42.4 µM) | 17.5 µg/mL (≈ 52.9 µM) | 13.9 µg/mL (≈ 42.2 µM) | – | – | – | – | – | –
12 | CC(C)=CCC/C(C)=C/CC/C(C)=C/CC/C(C)=C/CC/C(C)=C/CC/C(C)=C/CCC1(C)C=Cc2cc(O)ccc2O1 (centres unmarked) [Compound 6, 2-(hexaprenylmethyl)-2-methylchromenol] | > 90 µg/mL | 15.9 µg/mL (≈ 27.2 µM) | > 20 µg/mL | > 90 µg/mL | 41.4 µg/mL (≈ 70.8 µM) | – | – | – | – | – | –
13 | CC(=O)O[C@H]1C=C2C(=O)OCC2[C@]2(C)CCC3C(C)(C)CCC[C@]3(C)C12 (stereo partly drawn) [Compound 12, 11β-acetoxyspongi-12-en-16-one] | 3.32 µg/mL (≈ 9.21 µM) | 0.75 µg/mL (≈ 2.08 µM) | ~1 µg/mL (≈ 2.77 µM) | ~4 µg/mL (≈ 11.1 µM) | 4.14 µg/mL (≈ 11.5 µM) | – | – | – | 4.4 | – | –
14 | CCN(CC)CCCC(C)Nc1ccnc2cc(Cl)ccc12 (centres unmarked) [chloroquine, reference compound] | – | – | – | – | – | – | – | – | – | 0.056 µg/mL (≈ 0.175 µM) | –
15 | Nc1nc(N)nc(Nc2ccc([As]3SCC(CO)S3)cc2)n1 (centres unmarked) [melarsoprol, reference compound] | – | – | – | – | – | – | – | – | – | – | 0.003 µg/mL
16 | CC(C)=CCC/C(C)=C/CC/C(C)=C/CC/C=C(\C)CC/C=C(\C)CCC=C(C)C [Compound 10, squalene] | 34.9 µg/mL (≈ 84.9 µM) | > 90 µg/mL | ~1 µg/mL (≈ 2.43 µM) | > 90 µg/mL | 15 µg/mL (≈ 36.6 µM) | – | – | – | – | – | –
17 | CC(C)=CCC/C(C)=C/CC/C(C)=C/CC/C(C)=C/CC/C(C)=C/CC/C(C)=C/CC/C(C)=C/CC/C(C)=C/Cc1cc(C(=O)O)ccc1O [Compound 7, 4-hydroxy-3-octaprenylbenzoic acid] | 86.5 µg/mL (≈ 127 µM) | 5.6 µg/mL (≈ 8.2 µM) | ~1 µg/mL (≈ 1.46 µM) | > 90 µg/mL | 13.1 µg/mL (≈ 19.2 µM) | – | – | – | – | – | –
